Assay results: patent publication US12492236B2, “Fusion proteins for the treatment of cardiometabolic diseases” (Shattuck Labs, Inc., priority 2022, dated 2025)

Columns and labels:
[1] = test system: rat insulinoma INS-1 cells; assay: in vitro glucose-stimulated insulin secretion (GSIS) in INS-1 cells; assay type: cell-based; details: 1 hour glucose, then 2 hour incubation, ELISA, FIG. 4B
Text: X is a known inducer of GSIS.

[2] = test system: HFD-fed mice (Male C57BL/6); assay: longer-term obesity model in HFD-fed mice
Text: Briefly, mice (Male C57BL/6) were of approximately 13 weeks of age were housed 4 mice per cage. Following 2 weeks of acclimation, mice were introduced to 60% kcal HFD (Research Diets D12492). Cages were changed once, then changed once a week. Weekly body weights and non-fasted blood glucose were collected. […] The longer-term obesity model assesses a number of end points associated with obesity related type 2 diabetes (FIG. 6A).
Mice (Male C57BL/6) were of approximately 13 weeks of age were housed 4 mice per cage. Following 2 weeks of acclimatation, mice were introduced to 60% kcal HFD (Research Diets D12492). Cages were changed once, then changed once a week. Weekly body weights and non-fasted blood glucose were collected.
Mice were injected by tail vein with vehicle or the drugs on Day 0, Day 4, Day 7, Day 10, Day 14, and Day 18. Body weights were measured every 2 days. Change in body weight was calculated and plotted.
Cumulative food intake was measured between day 0 and 3, between day 4 and 7, between day 7 and day 11, and between day 11 and day 14, and represented as average daily food intake. For food consumption, remaining food was weighed on days 3, 8, and 15, and subtracted from the starting weight. This value was then normalized to the number of mice in the cage, and the number of days the mice had access to the food prior to weighing.
Blood glucose levels were measured on Days 0, 1, 10 and 15 and plotted.
On day 19 during terminal necropsy, liver and subcutaneous white adipose tissue were recovered weighed from treated animals.
To further analyze the changes in liver, histopathological analysis was conducted. Briefly, the liver tissue was stained with hematoxylin and eosin (H&E) and evaluated using standard techniques.

[3] = test system: HFD-fed mice (Male C57BL/6); assay: glucose tolerance test (GTT) model in HFD-fed mice; assay type: in vivo
Description: Cages were changed once, then changed once a week.
The mice administered the above treatment by i.v. injections. The mice were then fasted for 18 hours and administered a dose of 2 g/kg glucose by i.v. injections. Blood samples were drawn by tail clip bleeding at 15, 30 and 60 minutes post dosing and cardiac bleeding was used at 2 hours after glucose injection as end-point.

## GLP-1-Fc-GIP(Ag): GLP-1 fused to GIP agonist peptide (amino acids 1-42) via a hinge-CH2-CH3 Fc domain derived from IgG1; SEQ ID NO: 93
[1]
  insulin in culture supernatant (GSIS): stimulated insulin production to a similar, if not greater magnitude than dulaglutide or tirzepatide
[2]; Days 0, 1, 10 and 15, compared to the untreated mice, FIG. 8E
  blood glucose levels: decrease in blood glucose
[2]; FIG. 8B
  weights of individual mice: induced weight loss
[2]; H&E, FIG. 8J
  liver histology: hepatocellular ballooning and steatosis: a decrease in hepatocellular ballooning and steatosis
[2]; between 15 and 120 minutes after treatment, one way ANOVA p<0.05, FIG. 8C left panel
  plasma insulin levels on Day 1: rapid decrease in insulin levels
[2]; compared to the untreated mice, FIG. 8D
  average daily food intake: decrease in food intake
[2]; day 19 necropsy, FIG. 8G
  liver weight: livers of PBS control mice versus treated mice: much heavier compared to the mice receiving treatments
[2]; day 19 necropsy, versus PBS control, FIG. 8H
  subcutaneous white adipose tissue (sWAT) weight: decreased
[2]; obesity model
  tolerability: well tolerated and no overt toxicities were noted
[2]; one way ANOVA p<0.0001, FIG. 8C right panel
  plasma insulin levels on Day 15: significant decrease in the levels of insulin
[2]; picrosirius red, FIG. 8I
  decrease in liver collagen staining relative to tirzepatide or dulaglutide: greater decrease in collagen staining
  liver collagen staining (fibrosis): a decrease in collagen staining
[2]; tail vein dosing Day 0, 4, 7, 10, 14, 18, FIG. 8A
  change in body weight: progressive weight loss
[3]; FIG. 7C
  serum insulin time course following glucose administration: rapid induction of insulin
[3]; i.v. treatment, 18 hours fast, 2 g/kg glucose, versus PBS control (200 to about 800 mg/dl), FIG. 7A
  serum glucose time course following glucose administration: much smaller increase in serum glucose
[3]; summary of GTT model
  glucose tolerance: improved glucose tolerance
